Patent publication US10758534B2 (Vertex Pharmaceuticals Incorporated, priority 2014, dated 2020)

These compounds were tested against T1, F508del (Homo sapiens, UniProt P13569, DEL508-508) (assay: Protocol 2: FRET membrane potential optical assay (VIPR), identification of correction compounds). Conditions: F508del CFTR modulator activity; compounds of Table 1; read-out: EC30.
T1 construct: expressed in transfected cells
T1 sequence (P13569 with tags, fused parts or gaps DEL508-508): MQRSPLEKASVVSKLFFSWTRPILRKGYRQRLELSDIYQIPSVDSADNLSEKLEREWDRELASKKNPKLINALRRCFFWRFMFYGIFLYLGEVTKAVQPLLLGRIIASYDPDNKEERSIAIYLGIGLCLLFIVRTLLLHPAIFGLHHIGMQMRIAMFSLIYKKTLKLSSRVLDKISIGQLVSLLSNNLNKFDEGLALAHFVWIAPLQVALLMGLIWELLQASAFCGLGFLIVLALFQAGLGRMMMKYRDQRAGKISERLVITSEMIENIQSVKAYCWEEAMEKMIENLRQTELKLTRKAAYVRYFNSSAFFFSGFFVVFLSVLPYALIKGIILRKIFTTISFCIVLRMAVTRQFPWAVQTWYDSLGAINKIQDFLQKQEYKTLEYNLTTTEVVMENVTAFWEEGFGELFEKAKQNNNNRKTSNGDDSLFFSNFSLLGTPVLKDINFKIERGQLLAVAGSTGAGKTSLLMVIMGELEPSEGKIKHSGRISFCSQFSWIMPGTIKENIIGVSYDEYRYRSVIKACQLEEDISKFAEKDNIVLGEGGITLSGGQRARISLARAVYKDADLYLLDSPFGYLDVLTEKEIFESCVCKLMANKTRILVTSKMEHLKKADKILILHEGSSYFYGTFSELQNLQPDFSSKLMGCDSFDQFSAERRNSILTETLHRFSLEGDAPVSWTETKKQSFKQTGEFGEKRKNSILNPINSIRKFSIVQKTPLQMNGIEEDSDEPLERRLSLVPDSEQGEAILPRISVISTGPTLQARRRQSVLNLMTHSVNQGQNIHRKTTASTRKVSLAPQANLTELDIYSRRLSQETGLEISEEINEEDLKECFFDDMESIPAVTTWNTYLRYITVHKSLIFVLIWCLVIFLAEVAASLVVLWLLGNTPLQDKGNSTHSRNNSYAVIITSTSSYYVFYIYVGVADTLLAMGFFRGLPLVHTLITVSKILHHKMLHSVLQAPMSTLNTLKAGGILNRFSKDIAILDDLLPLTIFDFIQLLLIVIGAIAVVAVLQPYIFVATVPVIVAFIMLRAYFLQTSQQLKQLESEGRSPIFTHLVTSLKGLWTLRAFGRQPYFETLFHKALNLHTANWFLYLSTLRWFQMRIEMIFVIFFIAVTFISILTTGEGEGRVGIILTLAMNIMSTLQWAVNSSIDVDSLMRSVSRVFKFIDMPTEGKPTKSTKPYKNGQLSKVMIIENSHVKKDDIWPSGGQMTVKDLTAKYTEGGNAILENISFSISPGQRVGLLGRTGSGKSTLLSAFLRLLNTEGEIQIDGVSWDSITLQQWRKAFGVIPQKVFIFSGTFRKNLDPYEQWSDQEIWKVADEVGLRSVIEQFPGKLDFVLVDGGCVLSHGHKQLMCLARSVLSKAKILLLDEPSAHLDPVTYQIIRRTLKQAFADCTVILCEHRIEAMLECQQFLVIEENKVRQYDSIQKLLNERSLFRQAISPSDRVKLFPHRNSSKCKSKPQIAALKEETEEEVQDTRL
Assay type: cell-based
Summary of the method: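 Mouse NIH3T3 cells, stable F508del; cpd 16 hrs, 37° C., serum-free; pos ctrl 27° C. 16 hrs. Rinse in Krebs Ringers, dye load, then add 10 μM forskolin + 20 μM genistein with Cl^−-free (gluconate) medium; depolarization by FRET voltage dyes.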
Work on `CCOCCOc1ncc(-c2ccc(C(=O)NS(=O)(=O)c3cccnc3N)c(N3C[C@@H](C)CC3(C)C)n2)cc1C` [Compound 2497, N-[(2-amino-3-pyridyl)sulfonyl]-6-[6-(2-ethoxyethoxy)-5-methyl-3-pyridyl]-2-[(4S)-2,2,4-trimethylpyrrolidin-1-yl]pyridine-3-carboxamide] yielded an EC30 of less than 3000 nM.
For `CC1CN(c2ncccc2C(=O)NS(=O)(=O)c2cccc(N3CCCC3)n2)C(C)(C)C1` (stereo not shown) [Compound 2561, N-[(6-pyrrolidin-1-yl-2-pyridyl)sulfonyl]-2-(2,2,4-trimethylpyrrolidin-1-yl)pyridine-3-carboxamide], the EC30 was less than 3000 nM.
`CC1CN(c2ncccc2C(=O)NS(=O)(=O)c2cccc(Oc3cc(Cl)cc(C#N)c3)n2)C(C)(C)C1` (stereo not shown) [Compound 2177, N—[[6-(3-chloro-5-cyano-phenoxy)-2-pyridyl]sulfonyl]-2-(2,2,4-trimethylpyrrolidin-1-yl)pyridine-3-carboxamide] was tested, and the EC30 was less than 3000 nM.
`C[C@@H]1CN(c2nc(-c3cccc(C(F)(F)F)c3)ccc2C(=O)NS(=O)(=O)c2cccnc2N)C(C)(C)C1` [Compound 2593, N-[(2-amino-3-pyridyl)sulfonyl]-6-[3-(trifluoromethyl)phenyl]-2-[(4S)-2,2,4-trimethylpyrrolidin-1-yl]pyridine-3-carboxamide] gave an EC30 of less than 3000 nM.
`CC1CN(c2ncccc2C(=O)NS(=O)(=O)c2cccc(N3CCN(Cc4ccncc4)CC3)n2)C(C)(C)C1` (stereo not shown) [Compound 2175, N—[[6-[4-(4-pyridylmethyl)piperazin-1-yl]-2-pyridyl]sulfonyl]-2-(2,2,4-trimethylpyrrolidin-1-yl)pyridine-3-carboxamide] was tested, and the EC30 was 3000 to 10000 nM.
`CCCCOc1cccc(S(=O)(=O)NC(=O)c2cccnc2N2CC(C)CC2(C)C)n1` (stereo not shown) [Compound 2167, N-[(6-butoxy-2-pyridyl)sulfonyl]-2-(2,2,4-trimethylpyrrolidin-1-yl)pyridine-3-carboxamide] showed an EC30 of less than 3000 nM.
For `CC1CN(c2ncccc2C(=O)NS(=O)(=O)c2cccc(OCc3ccoc3)n2)C(C)(C)C1` (stereo not shown) [Compound 2507, N—[[6-(3-furylmethoxy)-2-pyridyl]sulfonyl]-2-(2,2,4-trimethylpyrrolidin-1-yl)pyridine-3-carboxamide], the EC30 was less than 3000 nM.
Compound `CC(C)Oc1cccc(-c2ccc(C(=O)NS(=O)(=O)c3ccc[nH]c3=O)c(N3C[C@@H](C)CC3(C)C)n2)c1` [Compound 2549, 6-(3-isopropoxyphenyl)-N-[(2-oxo-1H-pyridin-3-yl)sulfonyl]-2-[(4S)-2,2,4-trimethylpyrrolidin-1-yl]pyridine-3-carboxamide] has an EC30 of less than 3000 nM.
`CCC(C)(C)C(=O)N1CCC=C(c2ccc(C(=O)NS(=O)(=O)c3cccc(N)n3)c(N3C[C@@H](C)CC3(C)C)n2)C1` [Compound 2612, N-[(6-amino-2-pyridyl)sulfonyl]-6-[1-(2,2-dimethylbutanoyl)-3,6-dihydro-2H-pyridin-5-yl]-2-[(4S)-2,2,4-trimethylpyrrolidin-1-yl]pyridine-3-carboxamide] showed an EC30 of 3000 to 10000 nM.
For `CC1CN(c2ncccc2C(=O)NS(=O)(=O)c2cccc(NCc3cc(F)cc(F)c3)n2)C(C)(C)C1` (stereo not shown) [Compound 2421, N—[[6-[(3,5-difluorophenyl)methylamino]-2-pyridyl]sulfonyl]-2-(2,2,4-trimethylpyrrolidin-1-yl)pyridine-3-carboxamide], the EC30 was less than 3000 nM.
With `C[C@@H]1CN(c2nc(-n3ccc(-c4ccccn4)n3)ccc2C(=O)NS(=O)(=O)C2CC2)C(C)(C)C1` [Compound 2711] the EC30 was 3000 to 10000 nM.
Work on `CCOCCOCCOc1ccn(-c2ccc(C(=O)NS(=O)(=O)c3cccnc3N)c(N3C[C@@H](C)CC3(C)C)n2)n1` [Compound 2326, N-[(2-amino-3-pyridyl)sulfonyl]-6-[3-[2-(2-ethoxyethoxy)ethoxy]pyrazol-1-yl]-2-[(4S)-2,2,4-trimethylpyrrolidin-1-yl]pyridine-3-carboxamide] yielded an EC30 of less than 3000 nM.
In the case of `Cc1ccc(-c2ccc(C(=O)NS(=O)(=O)c3ccc[nH]c3=O)c(N3C[C@@H](C)CC3(C)C)n2)c(C)c1` [Compound 2037, 6-(2,4-dimethylphenyl)-N-[(2-oxo-1H-pyridin-3-yl)sulfonyl]-2-[(4S)-2,2,4-trimethylpyrrolidin-1-yl]pyridine-3-carboxamide], the EC30 was less than 3000 nM.

Same assay, conditions: Table 3; compounds of Table 1 as modulators of CFTR activity; protocol not stated
In the case of `Cc1cc(C)c(Oc2nc(C)c(C#N)cc2C(=O)NS(=O)(=O)c2cccc(N)c2)c(C)c1` [Compound 124, N-(3-aminophenyl)sulfonyl-5-cyano-6-methyl-2-(2,4,6-trimethylphenoxy)pyridine-3-carboxamide], the EC30 was “++ (“++” means between 3 uM and 10 uM)”.
`CCOc1ccc(-c2nc(N3CC(C)CC3(C)C)c(C(=O)NS(=O)(=O)c3cccc(N)n3)cc2C)cc1` (stereo not shown) [Compound 455, N-[(6-amino-2-pyridyl)sulfonyl]-6-(4-ethoxyphenyl)-5-methyl-2-(2,2,4-trimethylpyrrolidin-1-yl)pyridine-3-carboxamide] was tested, and the EC30 was “+++ (“+++” means <3 uM)”.
For `CCOc1ncccc1-c1ccc(C(=O)NS(=O)(=O)c2cccc(N)n2)c(Oc2c(C)cc(C)cc2C)n1` [Compound 718, N-[(6-amino-2-pyridyl)sulfonyl]-6-(2-ethoxy-3-pyridyl)-2-(2,4,6-trimethylphenoxy)pyridine-3-carboxamide], the EC30 was “+++ (“+++” means <3 uM)”.
With `Cc1cc(C)c(Cn2nc(C(C)(C)C)cc2C(=O)NS(=O)(=O)c2cccc(N)c2C)c(C)c1` [Compound 123, N-(3-amino-2-methyl-phenyl)sulfonyl-5-tert-butyl-2-[(2,4,6-trimethylphenyl)methyl]pyrazole-3-carboxamide] the EC30 was “+++ (“+++” means <3 uM)”.
For `CC(C)COc1cc(F)cc(-c2ccc(C(=O)NS(=O)(=O)c3ccn[nH]3)c(N3CCC(C)C(C)C3)n2)c1` (stereo not shown) [Compound 528, 2-(3,4-dimethyl-1-piperidyl)-6-(3-fluoro-5-isobutoxy-phenyl)-N-(1H-pyrazol-5-ylsulfonyl)pyridine-3-carboxamide], the EC30 was “+++ (“+++” means <3 uM)”.
In the case of `CCOc1ccc(C(=O)NS(=O)(=O)c2cccc(N)n2)c(Oc2c(C)cc(C)cc2C)n1` [Compound 637, N-[(6-amino-2-pyridyl)sulfonyl]-6-ethoxy-2-(2,4,6-trimethylphenoxy)pyridine-3-carboxamide], the EC30 was “++ (“++” means between 3 uM and 10 uM)”.
With `Cc1cc(C)cc(-c2nc(C(C)(C)C)ccc2C(=O)NS(=O)(=O)c2cccc(N)c2)c1` [Compound 52, N-(3-aminophenyl)sulfonyl-6-tert-butyl-2-(3,5-dimethylphenyl)pyridine-3-carboxamide] the EC30 was “+++ (“+++” means <3 uM)”.
In the case of `Cc1cc(C)c(Cn2c(C(=O)NS(=O)(=O)c3cccc(N)n3)cc3cc(C(C)C)ccc32)c(C)c1` [Compound 404, N-[(6-amino-2-pyridyl)sulfonyl]-5-isopropyl-1-[(2,4,6-trimethylphenyl)methyl]indole-2-carboxamide], the EC30 was “+++ (“+++” means <3 uM)”.
In the case of `Cc1cc(C)c(Oc2nc(-c3cc(F)cc(OCC(C)C)c3)ccc2C(=O)NS(=O)(=O)c2cccc(C#N)n2)c(C)c1` [Compound 771, N-[(6-cyano-2-pyridyl)sulfonyl]-6-(3-fluoro-5-isobutoxy-phenyl)-2-(2,4,6-trimethylphenoxy)pyridine-3-carboxamide], the EC30 was “+++ (“+++” means <3 uM)”.
With `Cc1cc(C)c(Cn2c(C(=O)NS(=O)(=O)c3ccccc3C#N)cc3ccccc32)c(C)c1` [Compound 358] the EC30 was “+++ (“+++” means <3 uM)”.
With `Cc1cc(C)c(CN2CCc3ccccc3CC2C(=O)NS(=O)(=O)c2cccc(N3CCOCC3)n2)c(C)c1` (stereo not shown) [Compound 669, N-[(6-morpholino-2-pyridyl)sulfonyl]-3-[(2,4,6-trimethylphenyl)methyl]-1,2,4,5-tetrahydro-3-benzazepine-4-carboxamide] the EC30 was “+++ (“+++” means <3 uM)”.
With `CCCN(CC1CC1)c1nc(-c2ccc(OC(C)C)nc2)ccc1C(=O)NS(=O)(=O)c1cccc(N)n1` [Compound 500, N-[(6-amino-2-pyridyl)sulfonyl]-2-[cyclopropylmethyl(propyl)amino]-6-(6-isopropoxy-3-pyridyl)pyridine-3-carboxamide] the EC30 was “+++ (“+++” means <3 uM)”.
In the case of `Cc1cc(C)c(Oc2nc(C3CCC(C)CC3)ccc2C(=O)NS(=O)(=O)c2ccc[nH]c2=O)c(C)c1` (stereo not shown) [Compound 743, 6-(4-methylcyclohexyl)-N-[(2-oxo-1H-pyridin-3-yl)sulfonyl]-2-(2,4,6-trimethylphenoxy)pyridine-3-carboxamide], the EC30 was “+++ (“+++” means <3 uM)”.
`Cc1cc(C)c(Cn2nc(C(C)(C)C)c(C)c2C(=O)NS(=O)(=O)c2cccc(N)c2)c(C)c1` [Compound 20, N-(3-aminophenyl)sulfonyl-5-tert-butyl-4-methyl-2-[(2,4,6-trimethylphenyl)methyl]pyrazole-3-carboxamide] was tested, and the EC30 was “+++ (“+++” means <3 uM)”.
With `CC(C)Oc1ccc(-c2ccc(C(=O)NS(=O)(=O)c3cccc(N)n3)c(N3C(C)CC4CCCCC43)n2)cn1` (stereo not shown) [Compound 675, N-[(6-amino-2-pyridyl)sulfonyl]-6-(6-isopropoxy-3-pyridyl)-2-(2-methyl-2,3,3a,4,5,6,7,7a-octahydroindol-1-yl)pyridine-3-carboxamide] the EC30 was “+++ (“+++” means <3 uM)”.
In the case of `CC(C)Oc1ccc(-c2ccc(C(=O)NS(=O)(=O)c3cccc(N)n3)c(N3CCC4(CC3)CC4)n2)cn1` [Compound 578, N-[(6-amino-2-pyridyl)sulfonyl]-2-(6-azaspiro[2.5]octan-6-yl)-6-(6-isopropoxy-3-pyridyl)pyridine-3-carboxamide], the EC30 was “+++ (“+++” means <3 uM)”.
With `Cc1cc(C)c(Oc2nc(C(C)(C)C)cnc2C(=O)NS(=O)(=O)c2cccc(N)c2)c(C)c1` [Compound 141, N-(3-aminophenyl)sulfonyl-5-tert-butyl-3-(2,4,6-trimethylphenoxy)pyrazine-2-carboxamide] the EC30 was “+++ (“+++” means <3 uM)”.
For `Cc1cc(C)c(Cn2nc(C(C)(C)C)cc2C(=O)NS(=O)(=O)c2cccc(O)c2)c(C)c1` [Compound 84, 5-tert-butyl-N-(3-hydroxyphenyl)sulfonyl-2-[(2,4,6-trimethylphenyl)methyl]pyrazole-3-carboxamide], the EC30 was “+++ (“+++” means <3 uM)”.
